Reference: BindingDB's records for doi:10.1021/ml1001536 (2010)

Experiment: Antagonist activity at CCR5 in IL-10 stimulated human PBMC cells assessed as MIP-1beta induced chemotaxis

IC50 [nM] | Compound
1.2 | Cc1ncnc(C)c1C(=O)N1CCC(C)(N2CCN(C3CCc4cc(C(F)(F)F)ccc43)[C@@H](C)C2)CC1 (stereo partly drawn) [4,6-Dimethyl-5-[(4-methyl-4-{(3S)-3-methyl-4-[5-(trifluoromethyl)-2,3-dihydro-1H-inden-1-yl]piperazin-1-yl}piperidin-1-yl)carbonyl]pyrimidine]
1.1 | Cc1ncnc(C)c1C(=O)N1CCC(C)(N2CCN(C3CCc4cc(Br)ccc43)[C@@H](C)C2)CC1 (stereo partly drawn) [5-({4-[(3S)-4-(5-Bromo-2,3-dihydro-1H-inden-1-yl)-3-methylpiperazin-1-yl]-4-methylpiperidin-1-yl}carbonyl)-4,6-dimethylpyrimidine]
3.5 | CO[C@@H]1Cc2cc(C(F)(F)F)ccc2[C@H]1N1CCN(C2(C)CCN(C(=O)c3c(C)ncnc3C)CC2)C[C@@H]1C [5-[(4-(3S)-4-[(1R,2R)-2-methoxy-5-(trifluoromethyl)-2,3-dihydro-1H-inden-1-yl]-3-methylpiperazin-1-yl-4-methylpiperidin-1-yl)carbonyl]-4,6-dimethylpyrimidine]
